In patent US6383488B1, “Pre-M/M epitopes of dengue virus, synthetic peptides, chimeric proteins and their use” (priority 1997, dated 2002):
Entries after “also recorded” stand apart in the source; their conditions may differ.

B1: PD33 (protein)
chain: MALVELKVPDIGGHENVDIIAVEVNVGDTIAVDDTLITLDLESVALTPHSGMGLETRAETWMSSEGAWKHAQRVESWILRNPRFLEMDVPAEVAGVVKEVKVKVGDKISEGGLIVVVEAEGTAAAPKAEAAAAPAQEAPKAAAPAPQAAQFGGSADAEYDVVVLGGGPGGYSAAFAAADEGLKVAIVERYKTLGGVCLNVGCIPSKALLHNAAVIDEVRHLAANGIKYPEPELDIDMLRAYKDGVVSRLTGGLAGMAKSRKVDVIQGDGQFLDPHHLEVSLTAGDAYEQAAPTGEKKIVAFKNCIIAAGSRVTKLPFIPEDPRIIDSSGALALKEVPGKLLIIGGGIIGLEMGTVYSTLGSRLDVVEMMDGLMQGADRDLVKVWQKQNEYRFDNIMVNTKTVAVEPKEDGVYVTFEGANAPKEPQRYDAVLVAAGRAPNGKLISAEKAGVAVTDRGFIEVDKQMRTNVPHIYAIGDIVGQPMLAHKAVHEGHVAAENCAGHKAYFDARVIPGVAYTSPEVAWVGETELSAKASGRKITKANFPWAASGRAIANGCDKPFTKLIFDAETGRIIGGGIVGPNGGDMIGEVCLAIEMGCDAADIGKTIHPHPTLGESIGMAAEVALGTCTDLPPQKKK

Legend:
[1] = tested on: Dengue virus serotype 1 (D1); assay: In vitro plaque-reduction neutralization test (PRNT) of anti-peptide sera, serotype D1; type: cell-based; conditions: sera of Balb/c mice immunized with peptide-BSA conjugate; titer = dilution giving 50% plaque number reduction; BHK-21 cells
[2] = tested on: Dengue 2 virus (strain A 15); assay: In vitro plaque-reduction neutralization test (PRNT) of anti-peptide sera, serotype D2; type: cell-based; conditions: sera of Balb/c mice immunized with peptide-BSA conjugate; titer = dilution giving 50% plaque number reduction; BHK-21 cells
Method: Neutralization technique was carried out according to Morens (Morens, D. M. et al. 1985. Simplified plaque reduction neutralization assay for dengue viruses by semimicro methods in BHK-21 cells: Comparison of the BHK suspension test with standard plaque reduction neutralization. J. Clin. Microbiol. 22 p.250).
Dilutions of anti-peptide sera and of anti-BSA controls and negative sera from 1/10 to 1/640 were prepared. Each dilution of sera was put into contact with a dilution of the virus (strain A 15 of Dengue 2) having 15-20 PFU/50 ml.
The mixture was incubated at 37 C. during 1 hour. A total of 50 ml of each mixture were added in triplicate to BHK-21 cells in plates of 24 wells, and they were incubated in a CO2 incubator at 37 C. during 4 hours. Then, 0.5 ml of carboxymethylcellulose-containing medium were added, and it was incubated again for several days considering the viral serotype used. After these days tinction and the count of lysis plaques produced by the virus were carried out.
Titer was expressed in each case as the dilution at which it was obtained the 50% of plaque number reduction.

[3] = tested on: Dengue virus serotype 3 (D3); assay: In vitro plaque-reduction neutralization test (PRNT) of anti-peptide sera, serotype D3; type: cell-based; conditions: sera of Balb/c mice immunized with peptide-BSA conjugate; titer = dilution giving 50% plaque number reduction; BHK-21 cells
[4] = tested on: Dengue virus serotype 4 (D4); assay: In vitro plaque-reduction neutralization test (PRNT) of anti-peptide sera, serotype D4; type: cell-based; conditions: sera of Balb/c mice immunized with peptide-BSA conjugate; titer = dilution giving 50% plaque number reduction; BHK-21 cells
[5] = tested on: four Dengue virus serotypes; assay: Induction of neutralizing antibodies (summary statement); type: cell-based; conditions: against the four Dengue virus serotypes; immunized mice
Method: Peptides were inoculated in Balb/c mice both conjugated or not to a carrier protein. The sera obtained after immunization with the conjugated peptides were tested by in vitro neutralization by reducing the number of plaques and by ELISA. We also studied the active protection against a Dengue 2 viral challenge in the immunized mice.

[6] = tested on: anti-peptide antibodies in sera of Dengue patients; assay: Indirect ELISA to detect anti-peptide antibodies, human sera; type: binding; conditions: 118 sera of Dengue patients diluted 1/200; for Percentage of positivity of human sera to peptide: peptide coated at 10 µg/ml
Method: Peptides 19-6, 20-1, 20-2, 20-3 were fixed to the plates in a 10 m g/ml concentration in coating buff they were incubated at 4 C. overnight Sera were added diluted 1/200 in PBS-Tween 20. Finally, total human /peroxidase anti-immunoglobuline conjugate was added, and subsequently, the substrate (orthophenylendiamine, H2O2, 0.05 M phosphate citrate buffer, pH 5) was added. The reading was carried out in an ELISA reader at 492 nm and the cut-off value for each peptide was determined.
The sera used were from subjects having viral clinical infection that was serologically diagnosed as Dengue by the techniques of Inhibition of the hemagglutination (Clarke, D. H. y Casals, J. 1958. Techniques for hemagglutination and hemagglutination—inhibition with Arthropod Borne Virus. Am. J. Trop. Med. Hyg. 7 p.561) and ELISA of inhibition (Vzquez, S., Fernndez, R. 1989. Utilizacin de un mtodo de ELISA de Inhibicin en el diagnstico serolgico de dengue. Rev. Cub. Med. Trop. 41(1) p18-26) for total anti-dengue antibodies.
The study induded 118 sera from patents of the epidemics occurred in Cuba 1981, Panama 1994 and Costa Rica 1994. Dengue virus 2 was isolated in these epidemics, besides serotype 1 and 4 in Costa Rica; they were classified according to the titers of inhibiting antibodies of hemagglutination in cases of primary and secondary infections.

[7] = tested on: spleen T lymphocytes cultured with dengue 2 virus; assay: In vitro blastogenesis assay of spleen T lymphocytes from peptide-immunized mice; type: cell-based, BALB/c mice; conditions: mice immunized with non-conjugated peptides; cells cultured with dengue 2 virus
Method: T cells from 19-6 and 19-5 immunized mice proliferated in an in vitro blastogenesis assay when they were cultured with the dengue 2 virus. […] It could contain a T cell cryptic epitope, being recognized in the free form of peptide but not like a result of the immunodominant epitopes presentation and processing of the virus in a natural infection.
FIG. 5. Proliferative response to dengue 2 virus antigens (at concentrations of 10, 20 and 40 m g/ml) of spleen T cells from peptides-immunized mice 19-6, 19-5 and 20-2.

[8] = tested on: live, mouse-adapted dengue-2 virus (strain A15); assay: Protection assay, intracranial challenge of immunized mice; type: in vivo, Balb/c mice; conditions: mice immunized with conjugated peptides; 100 LD50 intracranial; observed up to 21 days; Fisher's test, p<0,05
Method: Male Balb/c mice of 4-6 weeks old were immunized with 50 mg of the peptide-BSA conjugate intraperitoneally. In addition, two immunization schemes were performed, one with BSA and the other with PBS. A total of 4 inoculations were carried out, each of them 15 days apart. The Freund's Complete Adjuvant was used in the first doses, and the Freund's Incomplete Adjuvant in the others. A blood sample was extracted from the retro-orbital vein seven days after the last inoculation.
Mice were challenged 7 days after the last immunization by intracraneal injection with an dilution of 1/2500 (corresponding to 100 LD50 lethal doses) of live, mouse-adapted dengue-2 virus (strain A15). […] Data were tested for statistical significance using Fisher's test.

synthetic peptides = assay: ELISA of sera from mice immunized with fusion proteins, against the synthetic peptides; type: binding; conditions: mouse immunization with semipurified fusion proteins
From the text: Mouse immunization with PD33 and PD34 fusion proteins semipurified by a non-denaturalizing protocol, has elicited high titers against them in ELISA (up to 1/100 000), and at the same time antibodies with titers up to 1/4000 in ELISA against the synthetic peptides have been obtained.

| Molecule | Anti-peptide neutralization titer, D1 [1] | Anti-peptide neutralization titer, D2 [2] | Anti-peptide neutralization titer, D3 [3] | Anti-peptide neutralization titer, D4 [4] | Induction of neutralizing antibody production [5] | Average of the reactivity index (optical density of the sample/cut-off value) [6] | Percentage of positivity of human sera to peptide [6] [%] | Virus-specific proliferative response of spleen T lymphocytes [7] | Level of protection (survival) after Dengue 2 virus challenge [8] | ELISA antibody titers against the synthetic peptides (synthetic peptides) |
| --- | --- | --- | --- | --- | --- | --- | --- | --- | --- | --- |
| LETRTETWMSSEGAWKHAQRIE [B 20-3] | 1/110 | 1/80 | 1/80 | 1/80 | able to induce neutralizing antibody production | 1.49 | 83.1 | – | – | – |
| RQNEPEDIDCWCNSTSTWVTYGTCTTTGEHRREKRS [B 19-5] | – | – | – | – | – | – | – | Virus-specific proliferative responses were demonstrated; also recorded: proliferated | statistically significant; also recorded: statistically significative level of protection | – |
| CEDTITYKCPLLRQNEPEDIDCW [B 20-2] | – | – | – | – | – | 1.57 | 77.1 | did not elicit a significant proliferative response | – | – |
| LTTRNGEPHMIVMRQEKGKSLLFKTGDGV [B 19-6] | 1/100 | 1/180 | 1/60 | 1/160 | able to induce neutralizing antibody production | 1.07 | 56.8 | Virus-specific proliferative responses were demonstrated; also recorded: proliferated | statistically significant; also recorded: statistically significative level of protection | – |
| NSTSTWVTYGTCTTTGEHRREKRSV [B 20-1] | – | – | – | – | – | 1.52 | 79.6 | – | statistically significant; also recorded: statistically significative level of protection | – |
| B1 | – | – | – | – | – | – | – | – | – | up to 1/4000 |
